Assay [1] concerns the target T1, Histone deacetylase (Homo sapiens) (UniProt Q13547+O15379+Q9UBN7+Q92769+Q9UQL6+Q8WUI4+Q9BY41+Q96DB2+P56524+Q9UKV0+Q969S8). Particulars: HeLa, at 10 µM.
Description: Inhibition of HDAC in human HeLa cells using Fluor de Lys as substrate at 10 uM by fluorescence assay
Assay [2] deals with T1, Histone deacetylase (Homo sapiens). The conditions noted are these: HeLa, at 1 µM.
Description: Inhibition of HDAC in human HeLa cells using Fluor de Lys as substrate at 1 uM by fluorescence assay
A further assay deals with Histone deacetylase. The assay is described as follows: Inhibition of HDAC in human HeLa cells using Fluor de Lys as substrate by fluorescence assay. Format: cell-based.
In another assay the test system is MCF7. Nature of the assay: Cytotoxicity against human MCF7 cells after 48 hrs by Sulforhodamine B assay. Format: functional. On the technique in general: The SRB assay estimates cell density from bound dye.
The subject of a further assay is HCT-116. Nature of the assay: Cytotoxicity against human HCT116 cells after 48 hrs by Sulforhodamine B assay. In kind it is functional.

Consider 20 molecules from ChEMBL document CHEMBL2385000, “Design, synthesis and biological evaluation of indeno[1,2-d]thiazole derivatives as potent histone deacetylase inhibitors” (Bioorg Med Chem Lett, 2013).

For the molecule `O=C(/C=C/c1ccc2c(c1)Cc1sc(Nc3cccc(C(F)(F)F)c3)nc1-2)NO`, the inhibition in assay [1] was 86.3%; in assay [2], 22.9%.

Take `O=C(/C=C/c1ccc2c(c1)Cc1sc(Nc3ccc(Cl)cc3)nc1-2)NO`: the results for the inhibition in assay [1] and in assay [2] were 95.3% and 35.8%, respectively.

In the case of `O=C(/C=C/c1ccc2c(c1)Cc1sc(Nc3cccnc3)nc1-2)NO`, the results for the inhibition in assay [1] and in assay [2] were 96.5% and 62%, respectively. Moreover, the half-inhibitory concentration (IC50) against Histone deacetylase worked out at 298 nM. Further, the GI50 in the assay on MCF7 (Homo sapiens, MCF7, 48 h) came out at 1580 nM; in the assay on HCT-116 (Homo sapiens, HCT-116, 48 h) it was 2430 nM.

Consider `CNc1nc2c(s1)Cc1cc(/C=C/C(=O)NO)ccc1-2`, for which the GI50 in the assay on MCF7 (Homo sapiens, MCF7, 48 h) worked out at 1390 nM; in the assay on HCT-116 (Homo sapiens, HCT-116, 48 h), 1860 nM.

`O=C(/C=C/c1ccc2c(c1)Cc1sc(Nc3ccc(F)cc3F)nc1-2)NO`: the inhibition in assay [1] was determined as 92.3%; in assay [2] it was 21.6%.

Consider `O=C(/C=C/c1ccc2c(c1)Cc1sc(Nc3ccncc3)nc1-2)NO`, for which the inhibition was 93.9% in assay [1] and 10.2% in assay [2].

In the case of `CCCNc1nc2c(s1)Cc1cc(/C=C/C(=O)NO)ccc1-2`, the inhibition in assay [1] was found to be 93.3%; in assay [2] it was 52.7%.

Consider `COc1ccc(Nc2nc3c(s2)Cc2cc(/C=C/C(=O)NO)ccc2-3)cc1`, for which the results for the inhibition in assay [1] and in assay [2] were 95.5% and 45.1%, respectively.

As to `O=C(/C=C/c1ccc2c(c1)Cc1sc(NCCN3CCOCC3)nc1-2)NO`, the inhibition in assay [1] came to 97.2%; in assay [2], 66.9%. The IC50 against Histone deacetylase came out at 164 nM. The GI50 with MCF7 (Homo sapiens, MCF7, 48 h) is 2060 nM; with HCT-116 (Homo sapiens, HCT-116, 48 h), 1320 nM.

For the molecule `O=C(CCCCCCC(=O)Nc1ccccc1)NO` [VORINOSTAT], the figures for the GI50 in the assay on MCF7 and in the assay on HCT-116 were 689 nM and 878 nM, respectively.

Consider `COc1ccc(CNc2nc3c(s2)Cc2cc(/C=C/C(=O)NO)ccc2-3)cc1`, for which the values for the inhibition in assay [1] and in assay [2] were 86.2% and 10.7%, respectively.

In the case of `CN(C)c1nc2c(s1)Cc1cc(/C=C/C(=O)NO)ccc1-2`, the figures for the inhibition in assay [1] and in assay [2] were 97% and 71.7%, respectively. Besides, the IC50 at Histone deacetylase worked out at 157 nM. The GI50 in the assay with MCF7 (Homo sapiens, MCF7, 48 h) was determined as 1260 nM; with HCT-116 (Homo sapiens, HCT-116, 48 h) it was 1620 nM.

As for `O=C(/C=C/c1ccc2c(c1)Cc1sc(Nc3ccccc3)nc1-2)NO`, the inhibition in assay [1] was 95.3%; in assay [2] it was 20.7%.

On to `O=C(/C=C/c1ccc2c(c1)Cc1sc(NC3CCCCC3)nc1-2)NO`, for which the inhibition in assay [1] stood at 93.6%; in assay [2], 24.8%.

As for `Cc1ccc(Nc2nc3c(s2)Cc2cc(/C=C/C(=O)NO)ccc2-3)cc1`, the inhibition came out at 95.9% in assay [1] and 7.71% in assay [2].

With `COCCNc1nc2c(s1)Cc1cc(/C=C/C(=O)NO)ccc1-2`, the inhibition came to 97.4% in assay [1] and 71.6% in assay [2]. The molecule also came in with an IC50 at Histone deacetylase of 140 nM. Also, the GI50 turned out to be 869 nM with MCF7 (Homo sapiens, MCF7, 48 h) and 535 nM in the assay on HCT-116 (Homo sapiens, HCT-116, 48 h).

For the molecule `CC(C)(C)Nc1nc2c(s1)Cc1cc(/C=C/C(=O)NO)ccc1-2`, the values for the inhibition in assay [1] and in assay [2] were 95.3% and 39.8%, respectively.

With `O=C(/C=C/c1ccc2c(c1)Cc1sc(Nc3ccccn3)nc1-2)NO`, the inhibition in assay [1] was 77.7%; in assay [2] it was 25.5%.

With `CC(C)Nc1nc2c(s1)Cc1cc(/C=C/C(=O)NO)ccc1-2`, the inhibition in assay [1] was determined as 97.5%; in assay [2] it was 61.3%. For the same molecule, the half-inhibitory concentration (IC50) against Histone deacetylase turned out to be 214 nM. For the same molecule, the GI50 turned out to be 1210 nM with MCF7 (Homo sapiens, MCF7, 48 h) and 2100 nM with HCT-116 (Homo sapiens, HCT-116, 48 h).

On to `Cc1cc(C)c(Nc2nc3c(s2)Cc2cc(/C=C/C(=O)NO)ccc2-3)c(C)c1`, for which the figures for the inhibition in assay [1] and in assay [2] were 90% and 28.1%, respectively.

A word on the inhibition: it is the relative decrease from the control value, in per cent. Lower therefore signals a response near the control. Broadly, the IC50 is the concentration that gives 50% inhibition. Lower therefore signals higher potency. Broadly, the GI50 is the concentration giving 50% growth inhibition. Higher therefore signals less potent growth inhibition.
